Settings: Liquid, Vibrating tube method

CCCC[n+]1ccccc1.F[B-](F)(F)F [1-butylpyridinium tetrafluoroborate]
Settings | mass density [kg/m3]
283.15 K, 100 kPa | 1225.36
283.15 K, 5000 kPa | 1227.5
283.15 K, 10000 kPa | 1229.65
283.15 K, 15000 kPa | 1231.84
283.15 K, 20000 kPa | 1233.82
283.15 K, 25000 kPa | 1235.92
283.15 K, 30000 kPa | 1237.85
283.15 K, 35000 kPa | 1239.79
283.15 K, 40000 kPa | 1241.64
283.15 K, 45000 kPa | 1243.52
283.15 K, 50000 kPa | 1245.28
283.15 K, 55000 kPa | 1247
283.15 K, 60000 kPa | 1248.71
283.15 K, 65000 kPa | 1250.41
288.15 K, 100 kPa | 1221.64
288.15 K, 5000 kPa | 1223.77
288.15 K, 10000 kPa | 1225.95
288.15 K, 15000 kPa | 1228.23
288.15 K, 20000 kPa | 1230.2
288.15 K, 25000 kPa | 1232.3
288.15 K, 30000 kPa | 1234.24
288.15 K, 35000 kPa | 1236.23
288.15 K, 40000 kPa | 1238.24
288.15 K, 45000 kPa | 1240.13
288.15 K, 50000 kPa | 1241.78
288.15 K, 55000 kPa | 1243.6
288.15 K, 60000 kPa | 1245.23
288.15 K, 65000 kPa | 1247.03
293.15 K, 100 kPa | 1218.02
293.15 K, 5000 kPa | 1220.21
293.15 K, 10000 kPa | 1222.35
293.15 K, 15000 kPa | 1224.51
293.15 K, 20000 kPa | 1226.68
293.15 K, 25000 kPa | 1228.73
293.15 K, 30000 kPa | 1230.74
293.15 K, 35000 kPa | 1232.84
293.15 K, 40000 kPa | 1234.73
293.15 K, 45000 kPa | 1236.53
293.15 K, 50000 kPa | 1238.41
293.15 K, 55000 kPa | 1240.31
293.15 K, 60000 kPa | 1241.96
293.15 K, 65000 kPa | 1243.85
298.15 K, 100 kPa | 1214.34
298.15 K, 5000 kPa | 1216.62
298.15 K, 10000 kPa | 1218.93
298.15 K, 15000 kPa | 1221.01
298.15 K, 20000 kPa | 1223.33
298.15 K, 25000 kPa | 1225.43
298.15 K, 30000 kPa | 1227.48
298.15 K, 35000 kPa | 1229.43
298.15 K, 40000 kPa | 1231.45
298.15 K, 45000 kPa | 1233.36
298.15 K, 50000 kPa | 1235.32
298.15 K, 55000 kPa | 1237.1
298.15 K, 60000 kPa | 1238.81
298.15 K, 65000 kPa | 1240.44
303.15 K, 100 kPa | 1210.91
303.15 K, 5000 kPa | 1213.26
303.15 K, 10000 kPa | 1215.59
303.15 K, 15000 kPa | 1217.74
303.15 K, 20000 kPa | 1219.92
303.15 K, 25000 kPa | 1222.02
303.15 K, 30000 kPa | 1224.11
303.15 K, 35000 kPa | 1226.12
303.15 K, 40000 kPa | 1228.08
303.15 K, 45000 kPa | 1229.97
303.15 K, 50000 kPa | 1231.94
303.15 K, 55000 kPa | 1233.82
303.15 K, 60000 kPa | 1235.58
303.15 K, 65000 kPa | 1237.3
308.15 K, 100 kPa | 1207.32
308.15 K, 5000 kPa | 1209.57
308.15 K, 10000 kPa | 1211.82
308.15 K, 15000 kPa | 1214.09
308.15 K, 20000 kPa | 1216.23
308.15 K, 25000 kPa | 1218.48
308.15 K, 30000 kPa | 1220.54
308.15 K, 35000 kPa | 1222.62
308.15 K, 40000 kPa | 1224.5
308.15 K, 45000 kPa | 1226.48
308.15 K, 50000 kPa | 1228.36
308.15 K, 55000 kPa | 1230.34
308.15 K, 60000 kPa | 1232.17
308.15 K, 65000 kPa | 1234.06
313.15 K, 100 kPa | 1203.87
313.15 K, 5000 kPa | 1206.23
313.15 K, 10000 kPa | 1208.56
313.15 K, 15000 kPa | 1210.88
313.15 K, 20000 kPa | 1213.11
313.15 K, 25000 kPa | 1215.28
313.15 K, 30000 kPa | 1217.47
313.15 K, 35000 kPa | 1219.51
313.15 K, 40000 kPa | 1221.56
313.15 K, 45000 kPa | 1223.48
313.15 K, 50000 kPa | 1225.54
313.15 K, 55000 kPa | 1227.32
313.15 K, 60000 kPa | 1229.18
313.15 K, 65000 kPa | 1231.01
318.15 K, 100 kPa | 1200.36
318.15 K, 5000 kPa | 1202.66
318.15 K, 10000 kPa | 1205.15
318.15 K, 15000 kPa | 1207.31
318.15 K, 20000 kPa | 1209.58
318.15 K, 25000 kPa | 1211.7
318.15 K, 30000 kPa | 1213.85
318.15 K, 35000 kPa | 1216.03
318.15 K, 40000 kPa | 1218.05
318.15 K, 45000 kPa | 1220.04
318.15 K, 50000 kPa | 1222.02
318.15 K, 55000 kPa | 1223.9
318.15 K, 60000 kPa | 1225.83
318.15 K, 65000 kPa | 1227.74
323.15 K, 100 kPa | 1196.96
323.15 K, 5000 kPa | 1199.29
323.15 K, 10000 kPa | 1201.77
323.15 K, 15000 kPa | 1204.12
323.15 K, 20000 kPa | 1206.47
323.15 K, 25000 kPa | 1208.68
323.15 K, 30000 kPa | 1210.86
323.15 K, 35000 kPa | 1212.95
323.15 K, 40000 kPa | 1215.03
323.15 K, 45000 kPa | 1217
323.15 K, 50000 kPa | 1218.98
323.15 K, 55000 kPa | 1220.89
323.15 K, 60000 kPa | 1222.84
323.15 K, 65000 kPa | 1224.65
328.15 K, 100 kPa | 1193.36
328.15 K, 5000 kPa | 1195.72
328.15 K, 10000 kPa | 1198.11
328.15 K, 15000 kPa | 1200.54
328.15 K, 20000 kPa | 1202.82
328.15 K, 25000 kPa | 1205.08
328.15 K, 30000 kPa | 1207.36
328.15 K, 35000 kPa | 1209.57
328.15 K, 40000 kPa | 1211.63
328.15 K, 45000 kPa | 1213.66
328.15 K, 50000 kPa | 1215.6
328.15 K, 55000 kPa | 1217.56
328.15 K, 60000 kPa | 1219.5
328.15 K, 65000 kPa | 1221.56
333.15 K, 100 kPa | 1190.07
333.15 K, 5000 kPa | 1192.59
333.15 K, 10000 kPa | 1195
333.15 K, 15000 kPa | 1197.4
333.15 K, 20000 kPa | 1199.91
333.15 K, 25000 kPa | 1202.04
333.15 K, 30000 kPa | 1204.36
333.15 K, 35000 kPa | 1206.49
333.15 K, 40000 kPa | 1208.69
333.15 K, 45000 kPa | 1210.67
333.15 K, 50000 kPa | 1212.88
333.15 K, 55000 kPa | 1214.74
333.15 K, 60000 kPa | 1216.56
333.15 K, 65000 kPa | 1218.57

From the NIST ThermoML archive (doi:10.1016/j.fluid.2011.12.029)
